Measurements as given in patent US7807439B2, “Staphylococcus aureus-specific detection media and identifying and/or counting method using same” (Biomerieux S.A., priority 2001, dated 2010).

Assays:
S. aureus 8507276 = assay: Experiment 7: effect of maltose on α-glucosidase activity, weak inocula; format: cell-based, Staphylococcus aureus; set-up: key: 0 corresponds to a lack of activity; 0.1 corresponds to the presence of a trace of coloration; 0.5 corresponds to the presence of a very pale coloration; 1 corresponds to the presence of a clear coloration of weak intensity; 1.5 corresponds to the presence of a coloration which is intermediate between colorations 1 and 2; 2 corresponds to the presence of a true coloration of medium intensity; 2.5 corresponds to the presence of a coloration which is intermediate between colorations 2 and 3; 3 corresponds to the presence of an intense coloration; 3.5 corresponds to the presence of a coloration which is intermediate between colorations 3 and 4; 4 corresponds to the presence of a very intense coloration; settings: strain 2
Experimental: (§1) The maltose is solubilized in water at a concentration of, for example, 100 g/l, and then a sufficient volume to obtain the final concentrations above is added to the three molten media. The Staphylococcal strains derived from the bioMérieux internal collection were seeded onto each one of the chromogenic media on their own (closely spaced perpendicular streaks over the entire surface of the dish) using a suspension at 0.5 MacFarland diluted to 1/30000. The dishes were incubated at 37° C. for 48 hours. The colonies formed were examined visually after 18, 24 and 48 hours of incubation and the intensity of coloration of the colonies was marked. The coloration was noted and the intensity of these colorations was marked. The reading scale is the same as that used above for tables 2 and 4.

S. aureus 7509008 = assay: as above; format: cell-based, Staphylococcus aureus; set-up: key: 0 corresponds to a lack of activity; 0.1 corresponds to the presence of a trace of coloration; 0.5 corresponds to the presence of a very pale coloration; 1 corresponds to the presence of a clear coloration of weak intensity; 1.5 corresponds to the presence of a coloration which is intermediate between colorations 1 and 2; 2 corresponds to the presence of a true coloration of medium intensity; 2.5 corresponds to the presence of a coloration which is intermediate between colorations 2 and 3; 3 corresponds to the presence of an intense coloration; 3.5 corresponds to the presence of a coloration which is intermediate between colorations 3 and 4; 4 corresponds to the presence of a very intense coloration; settings: strain 1
Experimental: as §1

S. aureus 8311065 = assay: as above; format: cell-based, Staphylococcus aureus; set-up: key: 0 corresponds to a lack of activity; 0.1 corresponds to the presence of a trace of coloration; 0.5 corresponds to the presence of a very pale coloration; 1 corresponds to the presence of a clear coloration of weak intensity; 1.5 corresponds to the presence of a coloration which is intermediate between colorations 1 and 2; 2 corresponds to the presence of a true coloration of medium intensity; 2.5 corresponds to the presence of a coloration which is intermediate between colorations 2 and 3; 3 corresponds to the presence of an intense coloration; 3.5 corresponds to the presence of a coloration which is intermediate between colorations 3 and 4; 4 corresponds to the presence of a very intense coloration; settings: strain 3
Experimental: as §1

S. aureus 0201035 = assay: as above; format: cell-based, Staphylococcus aureus; set-up: key: 0 corresponds to a lack of activity; 0.1 corresponds to the presence of a trace of coloration; 0.5 corresponds to the presence of a very pale coloration; 1 corresponds to the presence of a clear coloration of weak intensity; 1.5 corresponds to the presence of a coloration which is intermediate between colorations 1 and 2; 2 corresponds to the presence of a true coloration of medium intensity; 2.5 corresponds to the presence of a coloration which is intermediate between colorations 2 and 3; 3 corresponds to the presence of an intense coloration; 3.5 corresponds to the presence of a coloration which is intermediate between colorations 3 and 4; 4 corresponds to the presence of a very intense coloration; settings: strain 5
Experimental: as §1

S. aureus 8507285 = assay: as above; format: cell-based, Staphylococcus aureus; set-up: key: 0 corresponds to a lack of activity; 0.1 corresponds to the presence of a trace of coloration; 0.5 corresponds to the presence of a very pale coloration; 1 corresponds to the presence of a clear coloration of weak intensity; 1.5 corresponds to the presence of a coloration which is intermediate between colorations 1 and 2; 2 corresponds to the presence of a true coloration of medium intensity; 2.5 corresponds to the presence of a coloration which is intermediate between colorations 2 and 3; 3 corresponds to the presence of an intense coloration; 3.5 corresponds to the presence of a coloration which is intermediate between colorations 3 and 4; 4 corresponds to the presence of a very intense coloration; settings: strain 4
Experimental: as §1

Staphylococcus aureus = assay: Experiment 7: effect of maltose, summary; format: cell-based; settings: in particular critical strains (3, 4, 5 and 6)
Experimental: as §1, with “marked.” for “marked. The coloration was noted and the intensity of these colorations was marked. The reading scale is the same as that used above for tables 2 and 4.”

OC[C@H]1O[C@H](O[C@H]2[C@H](O)[C@@H](O)C(O)O[C@@H]2CO)[C@H](O)[C@@H](O)[C@@H]1O (mixture of isomers) [Maltose, maltose]
Intensity of coloration of the colonies (S. aureus 8507276; 18 h, Maltose 100 mg/l): 2
Intensity of coloration of the colonies (S. aureus 8507276; 18 h, Maltose 300 mg/l): 2
Intensity of coloration of the colonies (S. aureus 8507276; 18 h, Maltose 400 mg/l): 2
Intensity of coloration of the colonies (S. aureus 8507276; 24 h, Maltose 100 mg/l): 2.7
Intensity of coloration of the colonies (S. aureus 8507276; 24 h, Maltose 300 mg/l): 2.7
Intensity of coloration of the colonies (S. aureus 8507276; 24 h, Maltose 400 mg/l): 2.7
Intensity of coloration of the colonies (S. aureus 8507276; >40 h, Maltose 100 mg/l): 3
Intensity of coloration of the colonies (S. aureus 8507276; >40 h, Maltose 300 mg/l): 3
Intensity of coloration of the colonies (S. aureus 8507276; >40 h, Maltose 400 mg/l): 3
Intensity of coloration of the colonies (S. aureus 7509008; 18 h, Maltose 100 mg/l): 1.3
Intensity of coloration of the colonies (S. aureus 7509008; 18 h, Maltose 300 mg/l): 1.3
Intensity of coloration of the colonies (S. aureus 7509008; 18 h, Maltose 400 mg/l): 1.7
Intensity of coloration of the colonies (S. aureus 7509008; 24 h, Maltose 100 mg/l): 1.7
Intensity of coloration of the colonies (S. aureus 7509008; 24 h, Maltose 300 mg/l): 1.7
Intensity of coloration of the colonies (S. aureus 7509008; 24 h, Maltose 400 mg/l): 3
Intensity of coloration of the colonies (S. aureus 7509008; >40 h, Maltose 100 mg/l): 2
Intensity of coloration of the colonies (S. aureus 7509008; >40 h, Maltose 300 mg/l): 2
Intensity of coloration of the colonies (S. aureus 7509008; >40 h, Maltose 400 mg/l): 2.7
Intensity of coloration of the colonies (S. aureus 8311065; 18 h, Maltose 100 mg/l): 1.3
Intensity of coloration of the colonies (S. aureus 8311065; 18 h, Maltose 300 mg/l): 1.3
Intensity of coloration of the colonies (S. aureus 8311065; 18 h, Maltose 400 mg/l): 1.3
Intensity of coloration of the colonies (S. aureus 8311065; 24 h, Maltose 100 mg/l): 1.7
Intensity of coloration of the colonies (S. aureus 8311065; 24 h, Maltose 300 mg/l): 1.7
Intensity of coloration of the colonies (S. aureus 8311065; 24 h, Maltose 400 mg/l): 2
Intensity of coloration of the colonies (S. aureus 8311065; >40 h, Maltose 100 mg/l): 2.7
Intensity of coloration of the colonies (S. aureus 8311065; >40 h, Maltose 300 mg/l): 2.7
Intensity of coloration of the colonies (S. aureus 8311065; >40 h, Maltose 400 mg/l): 2.7
Intensity of coloration of the colonies (S. aureus 0201035; 18 h, Maltose 100 mg/l): 0.3
Intensity of coloration of the colonies (S. aureus 0201035; 18 h, Maltose 300 mg/l): 0.5
Intensity of coloration of the colonies (S. aureus 0201035; 18 h, Maltose 400 mg/l): 0.5
Intensity of coloration of the colonies (S. aureus 0201035; 24 h, Maltose 100 mg/l): 0.5
Intensity of coloration of the colonies (S. aureus 0201035; 24 h, Maltose 300 mg/l): 1
Intensity of coloration of the colonies (S. aureus 0201035; 24 h, Maltose 400 mg/l): 1
Intensity of coloration of the colonies (S. aureus 0201035; >40 h, Maltose 100 mg/l): 0.8
Intensity of coloration of the colonies (S. aureus 0201035; >40 h, Maltose 300 mg/l): 1
Intensity of coloration of the colonies (S. aureus 0201035; >40 h, Maltose 400 mg/l): 1.3
Intensity of coloration of the colonies (S. aureus 8507285; 18 h, Maltose 100 mg/l): 0
Intensity of coloration of the colonies (S. aureus 8507285; 18 h, Maltose 300 mg/l): 0
Intensity of coloration of the colonies (S. aureus 8507285; 18 h, Maltose 400 mg/l): 0
Intensity of coloration of the colonies (S. aureus 8507285; 24 h, Maltose 100 mg/l): 0.3
Intensity of coloration of the colonies (S. aureus 8507285; 24 h, Maltose 300 mg/l): 0.3
Intensity of coloration of the colonies (S. aureus 8507285; 24 h, Maltose 400 mg/l): 0.3
Intensity of coloration of the colonies (S. aureus 8507285; >40 h, Maltose 100 mg/l): 0.8
Intensity of coloration of the colonies (S. aureus 8507285; >40 h, Maltose 300 mg/l): 1
Intensity of coloration of the colonies (S. aureus 8507285; >40 h, Maltose 400 mg/l): 1.3
effect on α-glucosidase expression (Staphylococcus aureus): activates the α-glucosidase expression
